System: 843782-103-R-J1-PDC complex spheroid viability
Test: Anticancer human tumor 843782-103-R-J1-PDC patient-derived lung adenocarcinoma cell line growth inhibition [RAS]
Settings: for IC50: curve of first compound; for viability, T/C: stronger effect = lower value
How it was run: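 Agents were tested in combination matrices in half-log decrements from a top concentration at or near clinical Cmax (10 microM if undetermined). Targets were multi-cell spheroids of tumour lines plus HUVEC and MSC stromal cells.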
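Further: viability read after seven days of compound exposure.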

Compound: C[C@@H](NC(=O)c1ncnc(N)c1Cl)c1ncc(C(=O)Nc2cc(C(F)(F)F)c(Cl)cn2)s1 + CCn1c(-c2cc(N3CCN(C)CC3)cnc2C(C)OC)c2c3cc(ccc31)-c1csc(n1)CC(NC(=O)C1CC1C)C(=O)N1CCCC(N1)C(=O)OCC(C)(C)C2
- IC50 (second compound 0.000949 µM): > 10000 nM
- IC50 (second compound 0.003 µM): > 10000 nM
- IC50 (second compound 0.00949 µM): < 31.6 nM
- IC50 (second compound 0.03 µM): < 31.6 nM
- IC50 (second compound 0.0949 µM): < 31.6 nM
- IC50 (second compound 0.3 µM): < 31.6 nM
- viability, T/C (second compound 0.000949 µM, first compound 0.0316 µM): 84.4%
- viability, T/C (second compound 0.000949 µM, first compound 0.1 µM): 78.1%
- viability, T/C (second compound 0.000949 µM, first compound 0.316 µM): 85.8%
- viability, T/C (second compound 0.000949 µM, first compound 1 µM): 79.6%
- viability, T/C (second compound 0.000949 µM, first compound 3.16 µM): 89.8%
- viability, T/C (second compound 0.000949 µM, first compound 10 µM): 84.3%
- viability, T/C (second compound 0.003 µM, first compound 0.0316 µM): 68.9%
- viability, T/C (second compound 0.003 µM, first compound 0.1 µM): 70%
- viability, T/C (second compound 0.003 µM, first compound 0.316 µM): 67.5%
- viability, T/C (second compound 0.003 µM, first compound 1 µM): 68.6%
- viability, T/C (second compound 0.003 µM, first compound 3.16 µM): 74.6%
- viability, T/C (second compound 0.003 µM, first compound 10 µM): 64.7%
- viability, T/C (second compound 0.00949 µM, first compound 0.0316 µM): 41%
- viability, T/C (second compound 0.00949 µM, first compound 0.1 µM): 51.6%
- viability, T/C (second compound 0.00949 µM, first compound 0.316 µM): 48.4%
- viability, T/C (second compound 0.00949 µM, first compound 1 µM): 44%
- viability, T/C (second compound 0.00949 µM, first compound 3.16 µM): 53.6%
- viability, T/C (second compound 0.00949 µM, first compound 10 µM): 48.2%
- viability, T/C (second compound 0.03 µM, first compound 0.0316 µM): 22.9%
- viability, T/C (second compound 0.03 µM, first compound 0.1 µM): 26.2%
- viability, T/C (second compound 0.03 µM, first compound 0.316 µM): 28.8%
- viability, T/C (second compound 0.03 µM, first compound 1 µM): 32.5%
- viability, T/C (second compound 0.03 µM, first compound 3.16 µM): 34.7%
- viability, T/C (second compound 0.03 µM, first compound 10 µM): 33.4%
- viability, T/C (second compound 0.0949 µM, first compound 0.0316 µM): 19.8%
- viability, T/C (second compound 0.0949 µM, first compound 0.1 µM): 18.8%
- viability, T/C (second compound 0.0949 µM, first compound 0.316 µM): 19.8%
- viability, T/C (second compound 0.0949 µM, first compound 1 µM): 21.6%
- viability, T/C (second compound 0.0949 µM, first compound 3.16 µM): 24.3%
- viability, T/C (second compound 0.0949 µM, first compound 10 µM): 23.7%
- viability, T/C (second compound 0.3 µM, first compound 0.0316 µM): 15.4%
- viability, T/C (second compound 0.3 µM, first compound 0.1 µM): 15.6%
- viability, T/C (second compound 0.3 µM, first compound 0.316 µM): 19.1%
- viability, T/C (second compound 0.3 µM, first compound 1 µM): 17.5%
- viability, T/C (second compound 0.3 µM, first compound 3.16 µM): 19.6%
- viability, T/C (second compound 0.3 µM, first compound 10 µM): 18.6%

From PubChem BioAssay AID2060883 (Molecular Pharmacology Branch, DTP, NCI, 2025)
